Each block holds one molecule with its values, some of them ahead of it.
Experiments:
[1] = biological target: T1, phosphorylated ERBB2 (pERBB2) (Homo sapiens, UniProt P04626); test: Detection of phosphorylated ERBB2 (pERBB2) by ELISA in BT-474 cells; assay type: cell-based; conditions: four hour incubation
T1 construct: endogenous in cells; host or cells: BT-474
Method: BT-474 cells were seeded into a 96-well at 2.0*10^4 cells/100 μl/well. Compounds were dissolved and serially diluted in DMSO. The compounds were then were added, mixed, and incubated for four hours at 37° C., 5% CO2. Compounds were added using four-fold dilutions at final concentrations ranging from 10 μM to 0.01 nM. Following the four hour incubation with compounds, cell lysates were prepared. Plates were centrifuged for 5 μmin at 3000 RPM, and supernatant was removed from each well. Cells were washed 3 times by resuspension in 150 μl PBS, followed by centrifugation and removal of the supernatant, as above. 100 μl of cell lysis buffer (Boston BioProducts, cat #BP-115D) supplied with 1× complete ULTRA cocktail inhibitor (Thermo ScientificTM, cat #78443) was then added to the washed cells. Cells were incubated with lysis buffer for 1 hour at 4° C., and then stored at -80° C. Enzyme-linked immunosorbent assays (ELISA) were performed to measure phosphorylated ERBB2 levels. […] The next day, plates were washed with PBS+0.05% Tween20 (PBST). 150 μl of 5% BSA blocking solution was added for 1 hour at room temperature, with shaking. Plates were washed with PBST. Cell lysates were thawed and 100 μl of lysate was added to the ELISA plate. The plates were incubated for 2 hours at room temperature, with shaking. ELISA plates were then washed with PBST and 100 μl of an HRP-labeled detection antibody that binds phosphorylated tyrosine (R&D Systems, cat #841913) was added to each well. Plates were incubated for 1 hour at room temperature, with shaking. Plates were then washed with PBST, and 100 μl TMB substrate solution (R&D Systems, cat #DY999) was added. Plate were incubated in the dark for 20 minutes at room temperature. 50 μl of Stop solution (R&D Systems, cat #DY994) (50 μl) was added to each well and mixed. Optical density at 450 nm was read on an EnSpire plate reader (Perkin Elmer). The remaining kinase activity by calculated using the following formula: % Relative activity=100×([…]). The low and high control values (“LC” and “HC”) were generated from lysate from wells without cells or with cells treated with 0.1% DMSO, respectively.

[2] = biological target: T2, phosphorylated EGFR (pEGFR) (Homo sapiens, UniProt P00533); test: Detection of phosphorylated EGFR (pEGFR) by AlphaLISA in EGF-stimulated A431 cells; assay type: cell-based; conditions: A431 cells (10% FBS), 4 hours incubation, EGF 30 ng/mL for 10 minutes
T2 construct: performed to measure phosphorylated EGFR levels using A431 cells (10% FBS); endogenous in cells; host or cells: A431
T2 sequence (P00533 25-1210): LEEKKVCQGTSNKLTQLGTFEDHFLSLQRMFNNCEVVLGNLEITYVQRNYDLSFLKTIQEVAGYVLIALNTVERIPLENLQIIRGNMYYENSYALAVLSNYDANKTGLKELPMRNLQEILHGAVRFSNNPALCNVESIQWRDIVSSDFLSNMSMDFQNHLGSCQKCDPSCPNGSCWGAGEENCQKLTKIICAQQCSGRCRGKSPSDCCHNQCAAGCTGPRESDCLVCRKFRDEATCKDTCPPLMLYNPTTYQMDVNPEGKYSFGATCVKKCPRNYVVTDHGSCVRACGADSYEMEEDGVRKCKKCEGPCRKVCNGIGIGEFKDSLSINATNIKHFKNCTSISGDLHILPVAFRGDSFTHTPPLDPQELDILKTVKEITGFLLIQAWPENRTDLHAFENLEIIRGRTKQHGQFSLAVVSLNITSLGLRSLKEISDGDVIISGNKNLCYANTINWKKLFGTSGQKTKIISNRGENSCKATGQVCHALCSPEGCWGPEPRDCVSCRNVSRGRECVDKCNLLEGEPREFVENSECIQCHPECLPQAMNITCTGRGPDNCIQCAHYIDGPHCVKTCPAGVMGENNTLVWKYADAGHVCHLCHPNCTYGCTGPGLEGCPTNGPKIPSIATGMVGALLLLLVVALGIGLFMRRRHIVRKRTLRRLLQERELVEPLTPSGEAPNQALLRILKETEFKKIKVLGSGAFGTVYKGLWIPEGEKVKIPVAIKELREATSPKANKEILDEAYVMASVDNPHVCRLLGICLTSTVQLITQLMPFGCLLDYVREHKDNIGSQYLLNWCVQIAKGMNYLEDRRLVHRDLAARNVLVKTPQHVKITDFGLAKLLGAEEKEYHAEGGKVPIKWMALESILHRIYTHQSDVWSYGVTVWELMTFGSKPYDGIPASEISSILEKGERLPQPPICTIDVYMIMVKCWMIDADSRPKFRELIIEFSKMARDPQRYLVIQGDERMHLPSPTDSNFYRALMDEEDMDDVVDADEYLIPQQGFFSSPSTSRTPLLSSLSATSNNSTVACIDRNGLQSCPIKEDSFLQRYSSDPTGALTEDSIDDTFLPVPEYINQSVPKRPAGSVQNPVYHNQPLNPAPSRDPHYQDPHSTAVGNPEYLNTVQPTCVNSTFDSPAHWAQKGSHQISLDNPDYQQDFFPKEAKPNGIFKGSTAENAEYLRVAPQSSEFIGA
Method: Enzyme-linked immunosorbent assays (ELISA) were performed to measure phosphorylated EGFR levels using A431 cells (10% FBS). A431 (1.0*10^4 cells/40 μl/well) cells were seeded in 384 well. Compounds were dissolved in DMSO, serially diluted in DMSO and then were added, mixed, and incubated for 4 hours at 37° C., 5% C02. Following the 4-hours incubation, cells were stimulated for 10 minutes with EGF (Invitrogen, cat #PHG0311) at a final concentration of 30 ng/mL in the incubator. The media was aspirated and cells were lysed in 10 μL lysis buffer with protease and phosphatase inhibitors (PerkinElmer, cat #ALSU-PEGFR-A50K). The plates were placed on a shaker for 5 μminutes and then incubated for 30 min at 4° C. for complete lysis. The lysate was transferred to an Optiplate (Perkin Elmer, cat #6007290).
Acceptor mix (PerkinElmer, cat #ALSU-PEGFR-A50K) was prepared just before use and 5 μL was dispensed to all the wells, followed by a 1.5-2 h incubation at room temperature in dark. The donor mix (PerkinElmer, cat #ALSU-PEGFR-A50K) was prepared under low light conditions prior to use and 5 μl of donor mix was added to all the wells under subdued lighting or green filters. The plates were placed on a shaker for 5 μmin, sealed, and incubated overnight at room temperature in dark. Plates were read on the Envision (PerkinElmer) using standard AlphaLISA settings.
The percentage of inhibition on EGFR phosphorylation was calculated following equation: % Inhibition=100×(LumHC−LumSample)/(LumHC−LumLC). The low and high controls (LC/HC) are generated from lysate from wells with cells treated with DMSO or […] Staurosporine (BioAustralis, cat #BIA-S1086), […]. IC50 values were calculated by fitting the Curve using XLfit (v5.3.1.3), equation 201: Y=Bottom+(Top−Bottom)/(1+10^((Log IC50−X)*HillSlope)).

T1 sequence (P04626 23-1255): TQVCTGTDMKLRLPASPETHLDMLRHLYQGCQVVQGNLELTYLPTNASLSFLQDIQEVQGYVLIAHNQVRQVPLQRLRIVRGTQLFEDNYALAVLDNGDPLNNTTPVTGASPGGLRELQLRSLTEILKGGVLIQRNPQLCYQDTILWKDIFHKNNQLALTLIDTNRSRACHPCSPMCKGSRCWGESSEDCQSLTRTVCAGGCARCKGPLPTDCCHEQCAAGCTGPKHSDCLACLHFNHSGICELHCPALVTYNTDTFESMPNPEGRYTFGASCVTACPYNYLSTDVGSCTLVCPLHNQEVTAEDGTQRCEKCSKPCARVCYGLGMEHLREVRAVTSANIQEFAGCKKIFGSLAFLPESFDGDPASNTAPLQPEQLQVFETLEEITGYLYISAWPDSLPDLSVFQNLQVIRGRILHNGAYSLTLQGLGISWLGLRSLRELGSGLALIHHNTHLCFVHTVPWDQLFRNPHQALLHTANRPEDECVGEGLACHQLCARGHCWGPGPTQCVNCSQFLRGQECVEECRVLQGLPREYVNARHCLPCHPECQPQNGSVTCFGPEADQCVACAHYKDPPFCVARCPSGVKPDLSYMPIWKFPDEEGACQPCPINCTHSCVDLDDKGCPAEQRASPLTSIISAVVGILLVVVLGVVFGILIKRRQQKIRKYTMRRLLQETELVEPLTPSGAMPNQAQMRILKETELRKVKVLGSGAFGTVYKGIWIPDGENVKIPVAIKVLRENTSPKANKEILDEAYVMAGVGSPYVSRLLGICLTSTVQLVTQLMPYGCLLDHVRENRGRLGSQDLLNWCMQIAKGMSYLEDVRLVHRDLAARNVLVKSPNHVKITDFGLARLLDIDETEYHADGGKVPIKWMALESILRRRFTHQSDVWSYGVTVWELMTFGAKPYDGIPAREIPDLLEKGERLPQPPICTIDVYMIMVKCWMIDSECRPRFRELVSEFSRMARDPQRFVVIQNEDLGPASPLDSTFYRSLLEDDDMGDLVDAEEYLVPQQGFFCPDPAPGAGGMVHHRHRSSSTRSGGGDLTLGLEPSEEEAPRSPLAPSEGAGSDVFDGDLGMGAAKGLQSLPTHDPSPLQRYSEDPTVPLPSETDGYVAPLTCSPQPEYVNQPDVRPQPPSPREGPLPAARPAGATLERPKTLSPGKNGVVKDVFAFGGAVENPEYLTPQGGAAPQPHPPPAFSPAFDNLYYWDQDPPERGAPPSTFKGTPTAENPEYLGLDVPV

SMILES: Cc1cc(Nc2ncnc3cc4c(nc23)N2CCNC[C@@H]2CO4)ccc1Oc1ccc2c(c1)ncn2C [Compound 39, (R)—N-(3-methyl-4-((1-methyl-1H-benzo[d]imidazol-5-yl)oxy)phenyl)-1,2,3,4,4a,5-hexahydropyrazino[1,2-d]pyrimido[4′,5′:5,6]pyrido[3,2-b][1,4]oxazin-11-amine]
- IC50 [1]: 279 nM
- IC50 [2]: > 10000 nM

SMILES: Cc1ccc(Oc2ccc(Nc3ncnc4cc5c(nc34)N3CCN(C)C[C@H]3CO5)cc2C)cn1 [Compound 73, (S)-3-methyl-N-(3-methyl-4-((6-methylpyridin-3-yl)oxy)phenyl)-1,2,3,4,4a,5-hexahydropyrazino[1,2-d]pyrimido[4′,5′:5,6]pyrido[3,2-b][1,4]oxazin-11-amine]
- IC50 [1]: 198 nM
- IC50 [2]: > 10000 nM

SMILES: Cc1cc(Nc2ncnc3cc4c(nc23)N2CCOC[C@H]2CO4)c(F)cc1Oc1ccn2ncnc2c1 [Compound 103, (S)—N-(4-([1,2,4]triazolo[1,5-a]pyridin-7-yloxy)-2-fluoro-5-methylphenyl)-1,2,4a,5-tetrahydro-4H-[1,4]oxazino[4,3-d]pyrimido[4′,5′:5,6]pyrido[3,2-b][1,4]oxazin-11-amine]
- IC50 [1]: 154 nM
- IC50 [2]: > 10000 nM

SMILES: Fc1cc(Oc2ccn3ncnc3c2)ccc1Nc1ncnc2cc3c(nc12)N1CCOC[C@H]1CO3 [Compound 104, (S)—N-(4-([1,2,4]triazolo[1,5-a]pyridin-7-yloxy)-2-fluorophenyl)-1,2,4a,5-tetrahydro-4H-[1,4]oxazino[4,3-d]pyrimido[4′,5′:5,6]pyrido[3,2-b][1,4]oxazin-11-amine]
- IC50 [1]: 495 nM
- IC50 [2]: > 10000 nM

SMILES: Cc1cc(Nc2ncnc3cc4c(nc23)N2CCNC[C@H]2CO4)ccc1Oc1ccc2c(c1)ncn2C [Compound 37, (S)—N-(3-methyl-4-((1-methyl-1H-benzo[d]imidazol-5-yl)oxy)phenyl)-1,2,3,4,4a,5-hexahydropyrazino[1,2-d]pyrimido[4′,5′:5,6]pyrido[3,2-b][1,4]oxazin-11-amine]
- IC50 [1]: 77.6 nM
- IC50 [2]: > 10000 nM

SMILES: Cc1cc(Nc2ncnc3cc4c(nc23)N2CCN(C)C[C@H]2CO4)ccc1Oc1ccc2c(c1)ncn2C [Compound 38, (S)-3-methyl-N-(3-methyl-4-((1-methyl-1H-benzo[d]imidazol-5-yl)oxy)phenyl)-1,2,3,4,4a,5-hexahydropyrazino[1,2-d]pyrimido[4′,5′:5,6]pyrido[3,2-b][1,4]oxazin-11-amine]
- IC50 [1]: 60.6 nM
- IC50 [2]: > 10000 nM

SMILES: Cc1cc(Nc2ncnc3cc4c(cc23)N2CCN(C)C[C@@H]2CO4)ccc1Oc1ccc2c(c1)ncn2C [Compound 64, (R)-3-methyl-N-(3-methyl-4-((1-methyl-1H-benzo[d]imidazol-5-yl)oxy)phenyl)-1,2,3,4,4a,5-hexahydropyrazino[1′,2′:4,5][1,4]oxazino[3,2-g]quinazolin-11-amine]
- IC50 [1]: 223 nM
- IC50 [2]: > 10000 nM

SMILES: Cc1c(Oc2ccn3ncnc3c2)ccc(Nc2ncnc3cc4c(nc23)N2CCOC[C@H]2CO4)c1F [Compound 102, (S)—N-(4-([1,2,4]triazolo[1,5-a]pyridin-7-yloxy)-2-fluoro-3-methylphenyl)-1,2,4a,5-tetrahydro-4H-[1,4]oxazino[4,3-d]pyrimido[4′,5′:5,6]pyrido[3,2-b][1,4]oxazin-11-amine]
- IC50 [1]: 257 nM
- IC50 [2]: > 10000 nM

Further lines, results first:

- IC50 [1]: 94.9 nM
- IC50 [2]: > 10000 nM
SMILES: CCN1CCN2c3nc4c(Nc5ccc(Oc6ccn7ncnc7c6)c(C)c5)ncnc4cc3OC[C@@H]2C1 [Compound 65, (S)—N-(4-([1,2,4]triazolo[1,5-a]pyridin-7-yloxy)-3-methylphenyl)-3-ethyl-1,2,3,4,4a,5-hexahydropyrazino[1,2-d]pyrimido[4′,5′:5,6]pyrido[3,2-b][1,4]oxazin-11-amine]

- IC50 [1]: 73.9 nM
- IC50 [2]: > 10000 nM
SMILES: Cc1cc(Nc2ncnc3cc4c(nc23)N2CCN(C)C[C@H]2CO4)c(F)cc1Oc1ccn2ncnc2c1 [Compound 75, (S)—N-(4-([1,2,4]triazolo[1,5-a]pyridin-7-yloxy)-2-fluoro-5-methylphenyl)-3-methyl-1,2,3,4,4a,5-hexahydropyrazino[1,2-d]pyrimido[4′,5′:5,6]pyrido[3,2-b][1,4]oxazin-11-amine]

- IC50 [1]: 97.2 nM
- IC50 [2]: > 10000 nM
SMILES: Cc1cc(Nc2ncnc3cc4c(cc23)N2CCN(C)C[C@@H]2CO4)ccc1Oc1ccn2ncnc2c1 [Compound 60, (R)—N-(4-([1,2,4]triazolo[1,5-a]pyridin-7-yloxy)-3-methylphenyl)-3-methyl-1,2,3,4,4a,5-hexahydropyrazino[1′,2′:4,5][1,4]oxazino[3,2-g]quinazolin-11-amine]

- IC50 [1]: 91.7 nM
- IC50 [2]: > 10000 nM
SMILES: Cc1cc(Nc2ncnc3cc4c(cc23)N2CCNC[C@@H]2CO4)ccc1Oc1ccn2ncnc2c1 [Compound 59, (R)—N-(4-([1,2,4]triazolo[1,5-a]pyridin-7-yloxy)-3-methylphenyl)-1,2,3,4,4a,5-hexahydropyrazino[1′,2′:4,5][1,4]oxazino[3,2-g]quinazolin-11-amine]

- IC50 [1]: 40.7 nM
- IC50 [2]: > 10000 nM
SMILES: Cc1cc(Nc2ncnc3ccc4c(c23)OC[C@H]2CCCCN42)ccc1Oc1ccn2ncnc2c1 [Compound 86, (R)—N-(4-([1,2,4]triazolo[1,5-a]pyridin-7-yloxy)-3-methylphenyl)-6,6a,7,8,9,10-hexahydropyrido[1′,2′:4,5][1,4]oxazino[2,3-f]quinazolin-4-amine]

- IC50 [1]: 119 nM
- IC50 [2]: > 10000 nM
SMILES: Cc1cc(Nc2ncnc3cc4c(c(F)c23)N2CCN(C)C[C@H]2CO4)ccc1Oc1ccn2ncnc2c1 [Compound 66, (S)—N-(4-([1,2,4]triazolo[1,5-a]pyridin-7-yloxy)-3-methylphenyl)-12-fluoro-3-methyl-1,2,3,4,4a,5-hexahydropyrazino[1′,2′:4,5][1,4]oxazino[3,2-g]quinazolin-11-amine]

- IC50 [1]: 541 nM
- IC50 [2]: > 10000 nM
SMILES: Cc1cc(Nc2ncnc3ccc4c(c23)OC[C@@H]2CN4CCN2)ccc1Oc1ccc2c(c1)ncn2C [Compound 53, (3S)—N-(3-methyl-4-((1-methyl-1H-benzo[d]imidazol-5-yl)oxy)phenyl)-3,4,5,6-tetrahydro-2H-3,7-methano[1,4,7]oxadiazonino[2,3-f]quinazolin-13-amine]

- IC50 [1]: 45.7 nM
- IC50 [2]: > 10000 nM
SMILES: COCCN1CCN2c3ccc4ncnc(Nc5ccc(Oc6ccn7ncnc7c6)c(C)c5)c4c3OC[C@H]2C1 [Compound 111, (R)—N-(4-([1,2,4]triazolo[1,5-a]pyridin-7-yloxy)-3-methylphenyl)-8-(2-methoxyethyl)-6,6a,7,8,9,10-hexahydropyrazino[1′,2′:4,5][1,4]oxazino[2,3-f]quinazolin-4-amine]

- IC50 [1]: 76.5 nM
- IC50 [2]: > 10000 nM
SMILES: Cc1cc(Nc2ncnc3ccc4c(c23)OC[C@@H]2CNCCN42)ccc1Oc1ccn2ncnc2c1 [Compound 43, (S)—N-(4-([1,2,4]triazolo[1,5-a]pyridin-7-yloxy)-3-methylphenyl)-6,6a,7,8,9,10-hexahydropyrazino[1′,2′:4,5][1,4]oxazino[2,3-f]quinazolin-4-amine]

- IC50 [2]: > 10000 nM
SMILES: CC(=O)N1CCN2c3ccc4ncnc(Nc5ccc(Oc6ccn7ncnc7c6)c(C)c5)c4c3OC[C@H]2C1 [Compound 109, (R)-1-(4-((4-([1,2,4]triazolo[1,5-a]pyridin-7-yloxy)-3-methylphenyl)amino)-6a,7,9,10-tetrahydropyrazino[1′,2′:4,5][1,4]oxazino[2,3-f]quinazolin-8(6H)-yl)ethan-1-one]
